According to patent US11485762B2, “Compositions and methods for inhibition of L-plastin activity in osteoclasts to reduce bone loss” (University of Maryland, Baltimore, priority 2017, dated 2022):
“Also recorded” adds a separate entry of the source.

Experiments:
endogenous LPL = assay: Phosphorylation of endogenous LPL in osteoclasts derived from RAW cells; type: cell-based; conditions: bone particles and TNF-α
Source text: (§1) C57/BL6 mice were used for osteoclast preparation as described previously (Chellaiah et al., 2000, J. Cell Biol., 148: 665.678; Chellaiah et al., 2007, J. Biol. Chem., 282: 10104-10116). Osteoclasts were generated in vitro using mouse bone marrow (BM) cells as described (Chellaiah et al., 2000, J. Cell Biol., 148: 665-678; Chellaiah et al., 2007, J. Biol. Chem., 282: 10104.10116). Osteoclasts differentiated from RAW 264.7 cells were also used to corroborate a few of the observations made with osteoclasts derived from mouse BM cells. Osteoclasts from RAW 264.7 cells were generated as described previously (Gupta et al., 2003, J Bone Miner Res 18: 669-685). Conditions were established that offer >90% population of mature multinucleated osteoclasts from both mouse bone marrow and RAW cells.
After flushing the marrow cells for osteoclast differentiation, long mouse bones (free of cells inside and muscles outside) were washed extensively with PBS and kept in ethanol until use. Long bones were air-dried in the hood and homogenized by a mini blender. Bone particles were sieved, and bone particles 60-80 μm in size were used for experiments. The multinucleated osteoclasts were seen from day four onward from mouse BM or RAW cells. At this stage, osteoclasts were added with sterile native bone particles (100 μg/ml medium) for 3-4 hours or 12-14 hours in the presence of TNF-α (20 ng/ml). […]

integrin αv = assay: Localization of integrin αv in NSZs (immunostaining with LPL and integrin αv antibody); type: cell-based, mouse; conditions: 3, 6 and 10 hours
Procedure: After cells were kept in the serum-free α-MEM medium for two hours, LPL peptides of interest were added to a final concentration of 100-150 nM to cells in serum-free media (Chellaiah et al, 2000, J. Biol. Chem., 275: 11993-12002). Osteoclasts transduced with peptides of interest and added with bone particles in the presence of TNF-α for 3-4 hours or 12-14 hours were used for lysate preparations. Cells plated on coverslips and treated with peptides were used for actin staining to detect podosomes. After transduction for 30 min., osteoclasts were re-plated on dentine slices with respective LPL peptide and TNF-α for 3-6 hours or 12-14 hours. These cells were used for Actin staining with rhodamine-phalloidin or immunostaining analyses (Chellaiah et al., 2000, J. Biol. Chem., 275: 11993-12002; Chellaiah et al., 2000, J. Cell. Biol., 148: 665-678; Chellaiah et al., 2003, J Biol Chem 278: 29086-29097).
Osteoclasts were fixed with 3% paraformaldehyde for 20 minutes and permeabilized with 0.1% Triton X-100 in PBS for 5 minutes. Subsequently, osteoclasts were stained with a primary (HA or integrin αv) and secondary antibody as described (Chellaiah et al., 2003, J Biol Chem 278: 29086-29097). Actin staining was done with rhodamine-phalloidin as described (Chellaiah et al., 2000, J. Biol. Chem., 275: 11993-12002; Chellaiah et al., 2000, J. Cell Biol., 148: 665-678). […]

[1] = system: osteoclasts derived from RAW cells; assay: Podosome organization and migration in osteoclasts derived from RAW cells; type: cell-based; conditions: compared with P5
Source text: as §1, with “RAW cells. […]” for “RAW cells.”
Cell migration (phagokinesis and transwell migration) assays were done as described previously (Chellaiah et al., 2000, J. Cell Biol., 148: 665-678). […] Migrated cells at the bottom of the wells were counted in 3-4 independent fields/transwell filter. […] In phagokinesis assay, cell motility was assessed by measuring the areas free of gold particles. By using a grided reticule (Boyce Scientific. Inc.) in the eyepiece of a Nikon microscope, areas free of gold particles were measured using a 10× objective. […]

Question: What does the source list for “MARGSVSDEE [Peptide P1, TAT-fused small molecular weight (10aa) amino-terminal LPL peptide, unsubstituted (S5S7)]”?
Answer: phosphorylation of endogenous (cellular) LPL (endogenous LPL): significant decrease; also recorded: reduced; localization of integrin αv in NSZs / colocalization with LPL (integrin αv): abrogated; migration of osteoclasts [1]: no effect; pattern of podosome organization [1]: no effect
